ChEMBL document CHEMBL3885881, “DrugMatrix”

Species on record: Rattus norvegicus
Experiment: DrugMatrix - Regimen: Daily Repeat
Type: toxicity, organism-based, Sprague-Dawley
Set-up: regimen Daily Repeat, gender Male, age 6-8 weeks
Details: in vivo, po, 739 mg/kg, route oral GAVAGE, dose level High, vehicle 100 % WATER; for ABSOLUTE BASOPHIL / ABSOLUTE EOSINOPHIL / ABSOLUTE LYMPHOCYTE / ABSOLUTE MONOCYTE / ABSOLUTE SEGMENTED NEUTROPHIL / BASOPHIL / EOSINOPHIL / ERYTHROCYTE COUNT / HEMATOCRIT / HEMOGLOBIN / LEUKOCYTE COUNT / LYMPHOCYTE / MEAN CORPUSCULAR HEMOGLOBIN / MEAN CORPUSCULAR HEMOGLOBIN CONCENTRATION / MEAN CORPUSCULAR VOLUME / MONOCYTE / NEUTROPHIL / NUCLEATED RED BLOOD CELLS / PLATELET COUNT: tissue Blood; for ALANINE AMINOTRANSFERASE / ALBUMIN / ALKALINE PHOSPHATASE / ASPARTATE AMINOTRANSFERASE / BLOOD UREA NITROGEN / CARBON DIOXIDE / CHLORIDE / CHOLESTEROL / CREATINE PHOSPHOKINASE / CREATININE / GLUCOSE / LACTATE DEHYDROGENASE / LIPASE / PHOSPHORUS / POTASSIUM / SODIUM / TOTAL BILIRUBIN / TOTAL PROTEIN / URIC ACID: tissue Plasma

C[C@H]1COc2c(N3CCN(C)CC3)c(F)cc3c(=O)c(C(=O)O)cn1c23.C[C@H]1COc2c(N3CCN(C)CC3)c(F)cc3c(=O)c(C(=O)O)cn1c23.O [LEVOFLOXACIN]
ABSOLUTE BASOPHIL (72 h, time 3 day): 0 CELLS/uL
ABSOLUTE EOSINOPHIL (72 h, time 3 day): 60.67 CELLS/uL
ABSOLUTE LYMPHOCYTE (72 h, time 3 day): 15481 CELLS/uL
ABSOLUTE MONOCYTE (72 h, time 3 day): 289.33 CELLS/uL
ABSOLUTE SEGMENTED NEUTROPHIL (72 h, time 3 day): 1169 CELLS/uL
BASOPHIL (72 h, time 3 day): 0%
EOSINOPHIL (72 h, time 3 day): 0.33%
ERYTHROCYTE COUNT (72 h, time 3 day): 5.52 x10E6/uL
HEMATOCRIT (72 h, time 3 day): 35.23%
HEMOGLOBIN (72 h, time 3 day): 13.27 G/DL
LEUKOCYTE COUNT (72 h, time 3 day): 17 x10E3/uL
LYMPHOCYTE (72 h, time 3 day): 91%
MEAN CORPUSCULAR HEMOGLOBIN (72 h, time 3 day): 24.03 pg
MEAN CORPUSCULAR HEMOGLOBIN CONCENTRATION (72 h, time 3 day): 37.67 G/DL
MEAN CORPUSCULAR VOLUME (72 h, time 3 day): 63.8 fL
MONOCYTE (72 h, time 3 day): 1.67%
NEUTROPHIL (72 h, time 3 day): 7%
NUCLEATED RED BLOOD CELLS (72 h, time 3 day): 0 /100WBC
PLATELET COUNT (72 h, time 3 day): 1423.67 x10E3/uL
ALANINE AMINOTRANSFERASE (72 h, time 3 day): 46.33 u/L
ALBUMIN (72 h, time 3 day): 4.1 G/DL
ALKALINE PHOSPHATASE (72 h, time 3 day): 308 u/L
ASPARTATE AMINOTRANSFERASE (72 h, time 3 day): 72.67 u/L
BLOOD UREA NITROGEN (72 h, time 3 day): 16.33 mg/dL
CARBON DIOXIDE (72 h, time 3 day): 26.67 mmol/L
CHLORIDE (72 h, time 3 day): 104.33 MEQ/L
CHOLESTEROL (72 h, time 3 day): 82.33 mg/dL
CREATINE PHOSPHOKINASE (72 h, time 3 day): 201.67 u/L
CREATININE (72 h, time 3 day): 0.14 mg/dL
GLUCOSE (72 h, time 3 day): 154.33 mg/dL
LACTATE DEHYDROGENASE (72 h, time 3 day): 124 u/L
LIPASE (72 h, time 3 day): 8.67 u/L
PHOSPHORUS (72 h, time 3 day): 11.47 mg/dL
POTASSIUM (72 h, time 3 day): 6.3 MEQ/L
SODIUM (72 h, time 3 day): 146.37 MEQ/L
TOTAL BILIRUBIN (72 h, time 3 day): 0.17 mg/dL
TOTAL PROTEIN (72 h, time 3 day): 5.97 G/DL
URIC ACID (72 h, time 3 day): 1.7 mg/dL
ABSOLUTE BASOPHIL (120 h, time 5 day): 0 CELLS/uL
ABSOLUTE EOSINOPHIL (120 h, time 5 day): 0 CELLS/uL
ABSOLUTE LYMPHOCYTE (120 h, time 5 day): 15118 CELLS/uL
ABSOLUTE MONOCYTE (120 h, time 5 day): 376 CELLS/uL
ABSOLUTE SEGMENTED NEUTROPHIL (120 h, time 5 day): 706 CELLS/uL
BASOPHIL (120 h, time 5 day): 0%
EOSINOPHIL (120 h, time 5 day): 0%
ERYTHROCYTE COUNT (120 h, time 5 day): 6.32 x10E6/uL
HEMATOCRIT (120 h, time 5 day): 38.53%
HEMOGLOBIN (120 h, time 5 day): 14.33 G/DL
LEUKOCYTE COUNT (120 h, time 5 day): 16.2 x10E3/uL
LYMPHOCYTE (120 h, time 5 day): 93.33%
MEAN CORPUSCULAR HEMOGLOBIN (120 h, time 5 day): 22.7 pg
MEAN CORPUSCULAR HEMOGLOBIN CONCENTRATION (120 h, time 5 day): 37.2 G/DL
MEAN CORPUSCULAR VOLUME (120 h, time 5 day): 61.03 fL
MONOCYTE (120 h, time 5 day): 2.33%
NEUTROPHIL (120 h, time 5 day): 4.33%
NUCLEATED RED BLOOD CELLS (120 h, time 5 day): 0.33 /100WBC
PLATELET COUNT (120 h, time 5 day): 1446 x10E3/uL
ALANINE AMINOTRANSFERASE (120 h, time 5 day): 51.67 u/L
ALBUMIN (120 h, time 5 day): 4.27 G/DL
ALKALINE PHOSPHATASE (120 h, time 5 day): 400 u/L
ASPARTATE AMINOTRANSFERASE (120 h, time 5 day): 69.33 u/L
BLOOD UREA NITROGEN (120 h, time 5 day): 16.33 mg/dL
CARBON DIOXIDE (120 h, time 5 day): 25.67 mmol/L
CHLORIDE (120 h, time 5 day): 105.33 MEQ/L
CHOLESTEROL (120 h, time 5 day): 69.67 mg/dL
CREATINE PHOSPHOKINASE (120 h, time 5 day): 212 u/L
CREATININE (120 h, time 5 day): 0.19 mg/dL
GLUCOSE (120 h, time 5 day): 191.33 mg/dL
LACTATE DEHYDROGENASE (120 h, time 5 day): 130.33 u/L
LIPASE (120 h, time 5 day): 9 u/L
PHOSPHORUS (120 h, time 5 day): 14.27 mg/dL
POTASSIUM (120 h, time 5 day): 6.6 MEQ/L
SODIUM (120 h, time 5 day): 147.87 MEQ/L
TOTAL BILIRUBIN (120 h, time 5 day): 0.17 mg/dL
TOTAL PROTEIN (120 h, time 5 day): 6.23 G/DL
URIC ACID (120 h, time 5 day): 2.37 mg/dL
